Results as given in PubChem BioAssay AID256 (DTP/NCI, 2004).
Several values for one entry are separate records, joined by “and”; a condition that tells them apart may be missing. Identical values can stand only once. Inconclusive results and toxic doses are left out. How the source made its calls: active means survival T/C of 150% or more; inactive means T/C below 125% in these data.

Test system: CD2F1 mice, L1210 leukemia ip, survival T/C
Experiment: NCI In Vivo Anticancer Drug Screen. Data for tumor model L1210 Leukemia (intraperitoneal) in CD2F1 (CDF1) mice
Conditions: endpoint: mean survival time, higher = longer survival
How it was run: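 Activity against a transplanted murine tumor was judged by comparing the compound group with a vehicle group. The outcome in the treated animals was divided by that in the controls.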

[1] = dose: 12.5 mg/kg/injection, schedule: Q01DX009 (ip), vehicle: water
[2] = dose: 25.0 mg/kg/injection, schedule: Q01DX009 (ip), vehicle: water
[3] = dose: 50.0 mg/kg/injection, schedule: Q01DX009 (ip), vehicle: saline with Tween-80
[4] = dose: 100.0 mg/kg/injection, schedule: Q01DX009 (ip), vehicle: saline with Tween-80
[5] = dose: 200.0 mg/kg/injection, schedule: Q01DX009 (ip), vehicle: saline with Tween-80
[6] = dose: 50.0 mg/kg/injection, schedule: Q04DX003 (ip), vehicle: saline with Tween-80
[7] = dose: 100.0 mg/kg/injection, schedule: Q04DX003 (ip), vehicle: saline with Tween-80
[8] = dose: 100.0 mg/kg/injection, schedule: Q01DX009 (ip), vehicle: Klucel (hydroxypropylcellulose) (HPC)
[9] = dose: 200.0 mg/kg/injection, schedule: Q01DX009 (ip), vehicle: Klucel (hydroxypropylcellulose) (HPC)
[10] = dose: 400.0 mg/kg/injection, schedule: Q01DX009 (ip), vehicle: Klucel (hydroxypropylcellulose) (HPC)
[11] = dose: 50.0 mg/kg/injection, schedule: Q04DX002 (ip), vehicle: saline with Tween-80
[12] = dose: 100.0 mg/kg/injection, schedule: Q04DX002 (ip), vehicle: saline with Tween-80
[13] = dose: 200.0 mg/kg/injection, schedule: Q04DX002 (ip), vehicle: saline with Tween-80
[14] = dose: 200.0 mg/kg/injection, schedule: Q04DX003 (ip), vehicle: saline with Tween-80
[15] = dose: 400.0 mg/kg/injection, schedule: Q01DX009 (ip), vehicle: saline with Tween-80
[16] = dose: 400.0 mg/kg/injection, schedule: Q04DX003 (ip), vehicle: saline with Tween-80

Measured: T/C

CCCCC1C/C=C/C=C/C=C/C=C/C(OC2OC(C)C(O)C(N)C2O)CC2OC(O)(CC(O)CC3OC3/C=C/C(=O)O1)CC(O)C2C(=O)O (configuration not stated)
inactive: dose: 3.5 mg/kg/injection, schedule: Q01DX009 (ip), vehicle: saline sonified 104 % of control | dose: 3.5 mg/kg/injection, schedule: Q04DX003 (ip), vehicle: saline sonified 91 % of control | dose: 7.0 mg/kg/injection, schedule: Q01DX009 (ip), vehicle: saline sonified 101 % of control | dose: 7.0 mg/kg/injection, schedule: Q04DX003 (ip), vehicle: saline sonified 93 % of control | dose: 14.0 mg/kg/injection, schedule: Q01DX009 (ip), vehicle: saline sonified 87 % of control | dose: 14.0 mg/kg/injection, schedule: Q04DX003 (ip), vehicle: saline sonified 91 % of control

Nc1n[n+](-c2ccccc2)no1
inactive: dose: 1.56 mg/kg/injection, schedule: Q01DX009 (ip), vehicle: water 106 % of control | dose: 3.12 mg/kg/injection, schedule: Q01DX009 (ip), vehicle: water 97 % of control and 100 % of control | dose: 6.25 mg/kg/injection, schedule: Q01DX009 (ip), vehicle: water 102 % of control and 105 % of control | [1] 101 % of control and 108 % of control | [2] 121 % of control and 111 % of control | dose: 50.0 mg/kg/injection, schedule: Q01DX009 (ip), vehicle: water 94 % of control

ClC1CC[N-]CC1.ClC1CC[N-]CC1.[Cl][Pt+2]([Cl])([Cl])[Cl]
inactive: [1] 123 % of control | [2] 110 % of control

CC(CCc1ccc(S(=O)(=O)Cl)cc1)c1ccc(S(=O)(=O)Cl)cc1 (configuration not stated)
inactive: [3] 106 % of control | [4] 95 % of control | [5] 91 % of control

O=C(C[n+]1ccccc1)N/N=C/c1ccc(Cl)cc1
inactive: [4] 107 % of control

O=C1c2ccccc2C(=O)N1CN1CCC(CCCC2CCN(CN3C(=O)c4ccccc4C3=O)CC2)CC1
inactive: dose: 25.0 mg/kg/injection, schedule: Q04DX003 (ip), vehicle: saline with Tween-80 95 % of control | [6] 95 % of control | [7] 95 % of control

O=C(O)C1(NO)CCCCC1
inactive: dose: 12.5 mg/kg/injection, schedule: Q01DX009 (ip), vehicle: Klucel (hydroxypropylcellulose) (HPC) 102 % of control | dose: 25.0 mg/kg/injection, schedule: Q01DX009 (ip), vehicle: Klucel (hydroxypropylcellulose) (HPC) 101 % of control | dose: 50.0 mg/kg/injection, schedule: Q01DX009 (ip), vehicle: Klucel (hydroxypropylcellulose) (HPC) 103 % of control | [8] 100 % of control | [9] 97 % of control | [10] 102 % of control

CCC(=O)n1nc(-c2ccccc2)c2ccccc21
inactive: dose: 25.0 mg/kg/injection, schedule: Q04DX002 (ip), vehicle: saline with Tween-80 100 % of control | [11] 88 % of control | [12] 96 % of control | [13] 103 % of control

O=C(NC(=S)Nc1ccccc1C(=O)O)c1ccccc1
inactive: dose: 66.0 mg/kg/injection, schedule: Q01DX009 (ip), vehicle: saline sonified 103 % of control | dose: 100.0 mg/kg/injection, schedule: Q01DX009 (ip), vehicle: saline sonified 103 % of control | dose: 150.0 mg/kg/injection, schedule: Q01DX009 (ip), vehicle: saline sonified 103 % of control

CC1C(C(=O)c2ccccc2)C(c2ccccc2)OP1(c1ccccc1)(c1ccccc1)c1ccccc1 (configuration not stated)
inactive: dose: 6.25 mg/kg/injection, schedule: Q01DX001 (ip), vehicle: saline with Tween-80 97 % of control | dose: 12.5 mg/kg/injection, schedule: Q01DX001 (ip), vehicle: saline with Tween-80 96 % of control | dose: 25.0 mg/kg/injection, schedule: Q01DX001 (ip), vehicle: saline with Tween-80 105 % of control

CC(=O)OC1C=CC(OC(C)=O)O1 (configuration not stated)
inactive: dose: 0.75 mg/kg/injection, schedule: Q01DX009 (ip), vehicle: saline with Tween-80 103 % of control | dose: 1.5 mg/kg/injection, schedule: Q01DX009 (ip), vehicle: saline with Tween-80 101 % of control | dose: 1.88 mg/kg/injection, schedule: Q04DX003 (ip), vehicle: saline 96 % of control | dose: 3.0 mg/kg/injection, schedule: Q01DX009 (ip), vehicle: saline with Tween-80 95 % of control | dose: 3.75 mg/kg/injection, schedule: Q04DX003 (ip), vehicle: saline 98 % of control | dose: 7.5 mg/kg/injection, schedule: Q01DX001 (ip), vehicle: saline 106 % of control | dose: 7.5 mg/kg/injection, schedule: Q04DX003 (ip), vehicle: saline 102 % of control

CCN(CC)CCN1Cc2ccccc2C1
inactive: dose: 25.0 mg/kg/injection, schedule: Q01DX009 (ip), vehicle: saline with Tween-80 102 % of control | [3] 94 % of control | [4] 96 % of control and 107 % of control

CN(C)C1(Cc2ccccc2)c2ccccc2-c2ccc(Br)cc21 (configuration not stated)
inactive: [7] 89 % of control | [14] 87 % of control

CS(=O)(=O)OCCN(CCOS(C)(=O)=O)c1ccc([N+](=O)[O-])cc1
inactive: dose: 12.5 mg/kg/injection, schedule: Q01DX010 (ip), vehicle: saline 100 % of control | dose: 25.0 mg/kg/injection, schedule: Q01DX010 (ip), vehicle: saline 100 % of control | dose: 50.0 mg/kg/injection, schedule: Q01DX010 (ip), vehicle: saline 115 % of control | dose: 100.0 mg/kg/injection, schedule: Q01DX010 (ip), vehicle: saline 106 % of control

Cc1ccc(C2(C(=O)O)CCCC2)cc1
inactive: [4] 96 % of control | [7] 97 % of control | [5] 97 % of control | [14] 98 % of control | [15] 90 % of control | [16] 95 % of control

CCOC(=O)CCN1C(=O)NC(C)(c2ccccc2)C1=O (configuration not stated)
inactive: [8] 100 % of control | [9] 98 % of control | [10] 114 % of control

CCOC(=O)NC(O)C(Cl)(Cl)Cl (configuration not stated)
inactive: [4] 97 % of control | [5] 106 % of control | [15] 112 % of control

CC(=O)Nc1ncc([N+](=O)[O-])s1
inactive: [6] 100 % of control | [7] 105 % of control | [14] 100 % of control

CCC(O)C[As](=O)(O)c1ccc(Cl)cc1 (configuration not stated)
inactive: dose: 0.38 mg/kg/injection, schedule: Q01DX009 (ip), vehicle: water 98 % of control | dose: 0.78 mg/kg/injection, schedule: Q01DX009 (ip), vehicle: water 98 % of control | dose: 1.5 mg/kg/injection, schedule: Q01DX009 (ip), vehicle: water 94 % of control

O=C(O)CN(CC(=O)O)Cc1ccccc1
inactive: dose: 100.0 mg/kg/injection, schedule: Q01DX001 (ip), vehicle: saline 103 % of control | dose: 200.0 mg/kg/injection, schedule: Q01DX001 (ip), vehicle: saline 103 % of control | dose: 400.0 mg/kg/injection, schedule: Q01DX001 (ip), vehicle: saline 103 % of control

COc1cc(Cl)cc(OC)c1
inactive: [4] 100 % of control | [5] 104 % of control | [15] 103 % of control

N#CC(/C=C/c1ccccc1)Nc1ccc(CCc2ccc(NC(C#N)/C=C/c3ccccc3)cc2)cc1 (configuration not stated)
inactive: [4] 94 % of control | [5] 90 % of control | [15] 100 % of control

N#CCC(=O)O
inactive: dose: 37.5 mg/kg/injection, schedule: Q04DX003 (ip), vehicle: saline 100 % of control | dose: 75.0 mg/kg/injection, schedule: Q04DX003 (ip), vehicle: saline 100 % of control

CCOC(=O)C1(Cc2ccccc2)SCCCS1
inactive: [11] 105 % of control | [12] 105 % of control | [13] 105 % of control

CCCCCCCC(=O)Nc1cc(C)ccc1C
inactive: [4] 94 % of control | [7] 98 % of control | [5] 94 % of control | [14] 97 % of control | [15] 98 % of control | [16] 98 % of control

CCCCC(C#N)C(=O)OCC (configuration not stated)
inactive: [7] 96 % of control | [14] 93 % of control

[C-]#[N+]C(C)(CC)c1ccccc1 (configuration not stated)
inactive: dose: 35.0 mg/kg/injection, schedule: Q01DX009 (ip), vehicle: saline with Tween-80 105 % of control

CCOC(=O)c1c(N)sc2c1CCN(Cc1ccccc1)C2
inactive: [7] 98 % of control | [14] 93 % of control | [16] 88 % of control

CC(C)(C)CC(C)(C)C1=CC(=O)C(C(C)(C)CC(C)(C)C)=CC1=O
inactive: dose: 100.0 mg/kg/injection, schedule: Q01DX001 (ip), vehicle: saline with Tween-80 91 % of control | dose: 200.0 mg/kg/injection, schedule: Q01DX001 (ip), vehicle: saline with Tween-80 90 % of control | dose: 400.0 mg/kg/injection, schedule: Q01DX001 (ip), vehicle: saline with Tween-80 86 % of control

Oc1c(C(c2ccccc2)N2CCCCC2)ccc2ccccc12 (configuration not stated)
inactive: [4] 101 % of control | [5] 97 % of control
